Here are results for seven compounds from ChEMBL document CHEMBL1153957, “Novel small molecule activators of beta-catenin-mediated signaling pathway: structure-activity relationships of indirubins” (Bioorg Med Chem Lett, 2009).

Calls of active or inactive are those of the source. The calls are words filed in the database; no cut-off is given here.

Common to all, as to type: cell-based
Holding throughout (conditions): Homo sapiens

The nature of test [1]: Activation of Wnt signaling pathway in HEK293 cells assessed as decrease in phosphorylation at Tyr216 of GSK3-beta at 250 nM after 24 hrs by Western blot analysis. In general terms: A western blot detects proteins with antibodies after separation by electrophoresis.
Test [2] is described as follows: Activation of Wnt signaling pathway in HEK293 cells assessed as decrease in phosphorylation at […]/37/Thr41 of […] at 250 nM after 24 hrs by Western blot analysis.
A short description of test [3]: Activation of Wnt signaling pathway in HEK293 cells assessed as increase in beta-catenin-mediated Tcf/Lef transcriptional activity at 250 nM after 24 hrs by dual luciferase reporter gene assay relative to control. A general note: Reporter assays use an easily measured gene product as a stand-in for the process of interest.
Test [4] in a line: Activation of Wnt signaling pathway in HEK293 cells assessed as increase in phosphorylation at Ser9 of GSK3-beta at 250 nM after 24 hrs by Western blot analysis.
Test [5] in a line: Activation of Wnt signaling pathway in HEK293 cells assessed as increase in beta-catenin-mediated Tcf/Lef transcriptional activity after 24 hrs by dual luciferase reporter gene.

On to `O=Nc1c(-c2c(O)[nH]c3ccc([N+](=O)[O-])cc23)[nH]c2ccccc12`, for which the outcome in test [1], in test [2] and in test [4] was Active. Besides, in test [3], the fold change (FC) was 4.2.
Take `O=C1Nc2ccccc2/C1=C1/Nc2ccccc2C1=O`: the fold change (FC) in test [3] came to 2.04.
As to `CC(C)(C)C(=O)Nc1ccc2c(c1)/C(=C1/Nc3ccccc3/C1=N\O)C(=O)N2`, the fold change (FC) in test [3] came out at 1.51.
Consider `O=C1Nc2ccc(Cl)cc2/C1=C1/Nc2ccccc2/C1=N\O`, for which the fold change (FC) in test [3] is 3.46.
Consider `CC(=O)Nc1ccc2c(c1)/C(=C1/Nc3ccccc3/C1=N\O)C(=O)N2`, for which the fold change (FC) in test [3] was found to be 1.89.
`O=C1Nc2cc(Br)ccc2/C1=C1/Nc2ccccc2/C1=N\O`: in test [5], the Activity result was “Dose-dependent effect”. Also, the fold change (FC) in test [3] turned out to be 2.7.
For the compound `O=C1Nc2ccc([N+](=O)[O-])cc2/C1=C1/Nc2ccc(Br)cc2/C1=N/O`, the fold change (FC) in test [3] came to 1.66.
